From US8609587B2, “Synergistic herbicidal compositions containing propyzamide and aminopyralid” (Dow AgroSciences, LLC., priority 2010, dated 2013)

What was measured:
Assay type in all cases: in vivo
[1] = system: Poa annua L. (annual bluegrass); test: Field trial in winter oilseed rape, visual weed control, POANN; settings: Great Britain, 93 to 200 Days after Application
Description: (§1) Field trials were conducted in winter oilseed rape crop using small plot research methodology. The oilseed rape crop was grown using normal cultural practices for the respective area of the trials, using varieties, fertilization and maintenance to ensure normal growth of the crop and the weeds. Plot size was 2 meters (m) wide by 10 m long with 4 replicates by treatment. All treatments were applied preemergence to early postemergence to the weeds using a compressed air backpack sprayer delivering 200 liters per hectare (L/ha) spray volume. Commercially available product of propyzamide/pronamide was mixed with a formulation of aminopyralid potassium at appropriately formulated product rates to achieve the desired rates based on a unit area of application (hectare) to achieve the desired rates as shown. Treatments consisted of propyzamide applied alone, as well as aminopyralid applied alone, and in combination, to measure herbicidal weed control and any synergistic interactions. Treatments were rated at different intervals from treatment to time of evaluation up to the following year when the crop starts to grow again in the spring. The weed efficacy was compared to the untreated control plants. Visual weed control was scored on a scale of 0 to 100 percent where 0 corresponds to no injury and 100 corresponds to complete kill. Colby's equation was used to determine the herbicidal effects expected from the mixtures (Colby, S. R. […] Calculation of the synergistic and antagonistic response of herbicide combinations.). The following equation was used to calculate the expected activity of mixtures containing two active ingredients, A and B: […] A=observed efficacy of active ingredient A at the same concentration as used in the mixture; B=observed efficacy of active ingredient B at the same concentration as used in the mixture.

[2] = system: Papaver rhoeas L. (corn poppy); test: Field trial in winter oilseed rape, visual weed control, PAPRH; settings: for % Control PAPRH (1) Ob: France, 112 to 188 Days after Application; for % Control PAPRH (2) Ob: Great Britain
Description: as §1

[3] = system: Matricaria spp L. (chamomile species); test: Field trial in winter oilseed rape, visual weed control, MATSS; settings: 93 to 188 Days after Application
Description: (§2) Field trials were conducted in winter oilseed rape crop using small plot research methodology. The oilseed rape crop was grown using normal cultural practices for the respective area of the trials, using varieties, fertilization and maintenance to ensure normal growth of the crop and the weeds. Plot size was 2 meters (m) wide by 10 m long with 4 replicates by treatment. All treatments were applied preemergence to early postemergence to the weeds using a compressed air backpack sprayer delivering 200 liters per hectare (L/ha) spray volume. Commercially available product of propyzamide/pronamide was mixed with a formulation of aminopyralid potassium at appropriately formulated product rates to achieve the desired rates based on a unit area of application (hectare) to achieve the desired rates as shown. Treatments consisted of propyzamide applied alone, as well as aminopyralid applied alone, and in combination, to measure herbicidal weed control and any synergistic interactions. Treatments were rated at different intervals from treatment to time of evaluation up to the following year when the crop starts to grow again in the spring. The weed efficacy was compared to the untreated control plants. Visual weed control was scored on a scale of 0 to 100 percent where 0 corresponds to no injury and 100 corresponds to complete kill. […]

[4] = system: Matricaria recutita L. (wild chamomile); test: Field trial in winter oilseed rape, visual weed control, MATCH; settings: 112 to 188 Days after Application
Description: as §2

[5] = system: Brassica napus L. ssp. Napus (winter oil seed rape); test: Field trial, crop tolerance (crop injury) of winter oilseed rape, BRSNW; settings: 167 Days after Application
Description: as §1

[6] = system: Viola arvensis Murr. (field violet); test: Field trial in winter oilseed rape, visual weed control, VIOAR; settings: 112 to 188 Days after Application
Description: as §1

[7] = system: Alopecurus myosuroides Huds. (blackgrass); test: Field trial in winter oilseed rape, visual weed control, ALOMY; settings: 93 to 200 Days after Application
Description: as §1

Compound: Nc1cc(Cl)nc(C(=O)O)c1Cl [Aminopyralid, 4-amino-3,6-dichloro-2-pyridinecarboxylic acid]
- % Control POANN (1) Ob ([1]; aminopyralid 6 g ae/ha alone): 0%
- % Control POANN (2) Ob ([1]; aminopyralid 6 g ae/ha alone): 0%
- % Control POANN (1) Ob ([1]; aminopyralid 8 g ae/ha alone): 0%
- % Control POANN (2) Ob ([1]; aminopyralid 8 g ae/ha alone): 0%
- % Control PAPRH (1) Ob ([2]; aminopyralid 6 g ae/ha alone): 48%
- % Control PAPRH (1) Ob ([2]; aminopyralid 8 g ae/ha alone): 68%
- % Control PAPRH (2) Ob ([2]; aminopyralid 6 g ae/ha alone, 93 to 188 Days after Application (Table 2)): 48%
- % Control PAPRH (2) Ob ([2]; aminopyralid 6 g ae/ha alone, 112 to 188 Days after Application (Table 1)): 0%
- % Control PAPRH (2) Ob ([2]; aminopyralid 8 g ae/ha alone, 93 to 188 Days after Application (Table 2)): 68%
- % Control PAPRH (2) Ob ([2]; aminopyralid 8 g ae/ha alone, 112 to 188 Days after Application (Table 1)): 75%
- % Control MATSS Ob ([3]; aminopyralid 10 g ae/ha alone): 48%
- % Control MATCH Ob ([4]; aminopyralid 6 g ae/ha alone): 80%
- % Crop Injury BRSNW Ob ([5]; aminopyralid 6 g ae/ha alone): 23%
- % Crop Injury BRSNW Ob ([5]; aminopyralid 8 g ae/ha alone): 22%
- % Control VIOAR Ob ([6]; aminopyralid 6 g ae/ha alone): 0%
- % Control VIOAR Ob ([6]; aminopyralid 8 g ae/ha alone): 0%
- % Control ALOMY Ob ([7]; aminopyralid 6 g ae/ha alone): 0%
- % Control ALOMY Ob ([7]; aminopyralid 8 g ae/ha alone): 0%

Compound: C#CC(C)(C)NC(=O)c1cc(Cl)cc(Cl)c1 [Propyzamide, 3,5-dichloro-N-(1,1-dimethylpropynyl)benzamide]
- % Control POANN (1) Ob ([1]; propyzamide 750 g ai/ha alone): 22%
- % Control POANN (2) Ob ([1]; propyzamide 750 g ai/ha alone): 22%
- % Control POANN (1) Ob ([1]; propyzamide 840 g ai/ha alone): 22%
- % Control PAPRH (1) Ob ([2]; propyzamide 750 g ai/ha alone): 18%
- % Control PAPRH (2) Ob ([2]; propyzamide 750 g ai/ha alone, 112 to 188 Days after Application (Table 1)): 0%
- % Control PAPRH (2) Ob ([2]; propyzamide 840 g ai/ha alone, 93 to 188 Days after Application (Table 2)): 11%
- % Control MATSS Ob ([3]; propyzamide 750 g ai/ha alone): 7%
- % Control MATCH Ob ([4]; propyzamide 750 g ai/ha alone): 0%
- % Crop Injury BRSNW Ob ([5]; propyzamide 750 g ai/ha alone): 0%
- % Crop Injury BRSNW Ob ([5]; propyzamide 840 g ai/ha alone): 2%
- % Control VIOAR Ob ([6]; propyzamide 750 g ai/ha alone): 27%
- % Control ALOMY Ob ([7]; propyzamide 750 g ai/ha alone): 75%
